Results on 20 compounds are retold here after article PMC7037731, “Synthesis, Anticancer Activity, and Preliminary Pharmacokinetic Evaluation of 4,4-Disubstituted Curcuminoid 2,2-bis(Hydroxymethyl)Propionate Derivatives” (Molecules, 2020).

Data set [1] concerns HCT-116 colon tumor xenograft. In words: In vivo antitumor activity, HCT-116 colon tumor xenograft bearing nude mice. Also on record: species or system nu/nu mice. As to conditions: 30 mg/kg i.p. QOD, positive control. How it is done:
The therapeutic effect of 2 was evaluated on HCT-116 colon tumor xenograft bearing nude mice. The oral administration of 2 at doses of 50, 100, or 150 mg/kg bw per day were performed after tumors reached approximately 100 mm^3 and continued for 30 consecutive days. 5-Fluorouracil treatment (30 mg/kg bw, i.p., QOD) was used as a positive control. […] There was a clear dose- and time-dependent inhibitory effect on tumor size in the other two groups, in which at 50 and 150 mg/kg doses the volume of the HCT-116 colon tumor was reduced to 73% and 40% of the control, respectively (Figure 2). The body weight of the mice was recorded prior to dosing every 3 d, and the average body weight of each group is depicted in Figure 3. Otherwise, they were monitored for visible signs of toxicity and behavioral changes 1 h after each administration.
Male nu/nu mice (5 weeks old) from National Laboratory Animal Center (Taipei, Taiwan) were maintained under the procedures and guidelines provided by the Institutional Animal Care and Use Committee of the National Health Research Institutes (Taipei, Taiwan). All experiments were supervised under the Institutional Animal Care and Use Committee, China Medical University, Taichung, Taiwan with a protocol number ([…]-2018-278). HCT-116 colon cancer cells (5 × 10^6 cells per mouse) were suspended in 0.1 mL of Matrigel solution (50% v/v Matrigel in PBS) and inoculated into the mammary fat pads of the mice. When the tumor size reached 100 mm^3, the tumor-bearing mice were randomly divided into four groups for treating with vehicle (5% ethanol and 10% tween 80 in 85% saline, 0.1 mL) and 2 (p.o. 50, 100 and 150 mg/kg/day body weight) respectively. Compounds was administered via oral route daily for 30 days. 5-Fluorouracil-treated group (i.p. 30 mg/kg) is the positive control. Tumor size and mouse body weight were measured once every 3 days, and tumor volume (mm^3) was calculated using the equation: length × (width)^2 × 0.5. At the end of experiments, mice were sacrificed.

Data set [2] has as its system MDA-MB-231. In words: MTT anti-proliferative assay, MDA-MB-231. The data set is classed as cell-based. The settings on record: Homo sapiens. On the procedure:
(§1) These compounds, along with all newly synthesized compounds, were screened for anti-proliferative activity against the same TNBC and colon cancer cell lines.
(§2) Cell viability was evaluated by measuring the reduction in MTT to yield blue formazan. Cells were cultured in 96-well plates, allowed to attach overnight, and then treated with compounds. After treatment, MTT solution (1 mg/mL) was added to each well, and plates were incubated for another 2 h. Medium was removed, blue formazan was dissolved in DMSO, and the absorbance was read at 570 nm by Multiskan Go spectrophotometer (Thermo Scientific, Madison, WI, USA).
Background: Tetrazolium dyes change colour on reduction, which living cells bring about.

Data set [3] deals with HCT-116. Kind of data set: MTT anti-proliferative assay, HCT-116. In kind it is cell-based. As to conditions: Homo sapiens. How it is done: as §1, §2
The mark [4] stands for this setting: 48 h treatment, MTT, mean ± SD of at least three experiments, read-out: IC50 (M)/ 48 h MDA-MB-231.
[5] abbreviates: 48 h treatment, MTT, mean ± SD of at least three experiments, read-out: IC50 (M)/ 48 h HCT-116.
Where [6] appears, read: anti-proliferative screening, read-out: IC50 MDA-MB-231.
Where [7] appears, read: anti-proliferative screening, read-out: IC50 HCT-116.

Each structure is given as a SMILES string. Like-named read-outs stand apart in the source and are kept apart here.

`O=c1[nH]cc(F)c(=O)[nH]1` [5-Fluorouracil, reference compound] gave a tumor-growth inhibition in data set [1] of 40%.
In the case of `CCC(CC)(C(=O)/C=C/c1ccc(OC(=O)C(C)(CO)CO)c(OC)c1)C(=O)/C=C/c1ccc(OC(=O)C(C)(CO)CO)c(OC)c1` [Compound 3], the values for the IC50 in data set [2] (setting [4]) and in data set [3] (setting [5]) were 3.02e-06 ± 1.5e-07 M and 1.93e-06 ± 1e-08 M, respectively.
As usually defined, the melting point is the temperature of the solid-liquid transition. The compound `CCC(CC)(C(=O)/C=C/c1ccc(O)c(OC)c1)C(=O)/C=C/c1ccc(O)c(OC)c1` [Compound 3m, (1E,6E)-4,4-Diethyl-1,7-bis(4-hydroxy-3-methoxyphenyl)hepta-1,6-diene-3,5-dione] returned a melting point of 114 to 115 °C. Further, in data set [2] (setting [4]), the IC50 worked out at 9.12e-06 ± 4e-07 M. In data set [3] (setting [5]), the IC50 is 8.18e-06 ± 5.7e-07 M.
For `COc1cc(/C=C/C(=O)C(Cc2ccccc2)(Cc2ccccc2)C(=O)/C=C/c2ccc(OC(=O)C(C)(CO)CO)c(OC)c2)ccc1OC(=O)C(C)(CO)CO` [Compound 4], the results for the IC50 in data set [2] (setting [4]) and in data set [3] (setting [5]) were 2.45e-06 ± 2.4e-07 M and 7.66e-06 ± 6.1e-07 M, respectively.
On to `COc1cc(/C=C/C(=O)C(Cc2ccccc2)(Cc2ccccc2)C(=O)/C=C/c2ccc(O)c(OC)c2)ccc1O` [Compound 4m, (1E,6E)-4,4-Dibenzyl-1,7-bis(4-hydroxy-3-methoxyphenyl)hepta-1,6-diene-3,5-dione], for which the melting point lay in the range of 134 to 135 °C. Moreover, the IC50 in data set [2] (setting [4]) worked out at 3.65e-05 ± 1.66e-06 M. Besides, the IC50 in data set [3] (setting [5]) stood at 9.4e-06 ± 2e-08 M.
As to `C#CCC(CC#C)(C(=O)/C=C/c1ccc(OC(=O)C(C)(CO)CO)c(OC)c1)C(=O)/C=C/c1ccc(OC(=O)C(C)(CO)CO)c(OC)c1` [Compound 5], the IC50 in data set [2] (setting [4]) stood at 5.87e-06 ± 1e-07 M; in data set [3] (setting [5]), 5.81e-06 ± 2.3e-07 M.
For `C#CCC(CC#C)(C(=O)/C=C/c1ccc(O)c(OC)c1)C(=O)/C=C/c1ccc(O)c(OC)c1` [Compound 5m, (1E,6E)-1,7-bis(4-Hydroxy-3-methoxyphenyl)-4,4-di(prop-2-yn-1-yl)hepta-1,6-diene-3,5-dione], in that order: 3.1e-06 ± 1.5e-07 M and 1.38e-06 ± 6e-08 M.
Take `C=CCC(CC=C)(C(=O)/C=C/c1ccc(OC(=O)C(C)(CO)CO)c(OC)c1)C(=O)/C=C/c1ccc(OC(=O)C(C)(CO)CO)c(OC)c1` [Compound 6, [(1E,6E)-4,4-Diallyl-3,5-dioxohepta-1,6-diene-1,7-diyl]bis(2-methoxy-4,1-phenylene) bis[3-hydroxy-2-(hydroxymethyl)-2-methylpropanoate]]: the melting point was in the range of 195 to 197 °C. Besides, the IC50 in data set [2] (setting [4]) worked out at 3.13e-06 ± 5.4e-07 M. The IC50 in data set [3] (setting [5]) is 9.2e-07 ± 6e-08 M.
On to `C=CCC(CC=C)(C(=O)/C=C/c1ccc(O)c(OC)c1)C(=O)/C=C/c1ccc(O)c(OC)c1` [Compound 6m, (1E,6E)-4,4-Diallyl-1,7-bis(4-hydroxy-3-methoxyphenyl)hepta-1,6-diene-3,5-dione], for which the IC50 in data set [2] (setting [4]) amounted to 6.88e-06 ± 3.6e-07 M; in data set [3] (setting [5]) it was 4.4e-06 ± 5.3e-07 M.
`COc1cc(/C=C/C(=O)C(COC(C)=O)(COC(C)=O)C(=O)/C=C/c2ccc(OC(=O)C(C)(CO)CO)c(OC)c2)ccc1OC(=O)C(C)(CO)CO` [Compound 10, [(1E,6E)-4,4-bis(Acetoxymethyl)-3,5-dioxohepta-1,6-diene-1,7-diyl]bis(2-methoxy-4,1-phenylene) bis[3-hydroxy-2-(hydroxymethyl)-2-methylpropanoate]] gave a melting point of 194 to 196 °C. The IC50 in data set [2] (setting [4]) was 6.55e-06 ± 4e-08 M. Also, the IC50 in data set [3] (setting [5]) worked out at 6.53e-06 ± 1e-08 M.
Regarding `COCC(COC)(C(=O)/C=C/c1ccc(OC(=O)C(C)(CO)CO)c(OC)c1)C(=O)/C=C/c1ccc(OC(=O)C(C)(CO)CO)c(OC)c1` [Compound 11, [(1E,6E)-4,4-bis(Methoxymethyl)-3,5-dioxohepta-1,6-diene-1,7-diyl]bis(2-methoxy-4,1-phenylene) bis[3-hydroxy-2-(hydroxymethyl)-2-methylpropanoate]], the melting point was 187 to 188 °C. The IC50 in data set [2] (setting [4]) turned out to be 8.49e-05 ± 1.67e-06 M. The IC50 in data set [3] (setting [5]) was 6.91e-05 ± 3.11e-06 M.
In turn, `COc1ccc(/C=C/C(=O)C(CO)(CO)C(=O)/C=C/c2ccc(OC)c(OC)c2)cc1OC` [Compound 12, (1E,6E)-1,7-bis(3,4-Dimethoxyphenyl)-4,4-bis(hydroxymethyl)hepta-1,6-diene-3,5-dione] returned a melting point of 174 to 176 °C. The IC50 in data set [2] (setting [4]) is 5.35e-05 ± 3.45e-06 M. The IC50 in data set [3] (setting [5]) was 5.8e-05 ± 6e-07 M.
In turn, `COc1ccc(/C=C/C(=O)C(COC(=O)C(C)(CO)CO)(COC(=O)C(C)(CO)CO)C(=O)/C=C/c2ccc(OC)c(OC)c2)cc1OC` [Compound 14, 2,2-bis[(E)-3-(3,4-Dimethoxyphenyl)acryloyl]propane-1,3-diylbis[3-hydroxy-2-(hydroxymethyl)-2-methylpropanoate]] yielded a melting point greater than 300 °C. Further, the IC50 in data set [2] (setting [4]) is 5.74e-05 ± 2.06e-06 M. In addition, in data set [3] (setting [5]), the IC50 is 4.01e-05 ± 1.61e-06 M.
Turning to `CCCC(CCC)(C(=O)/C=C/c1ccc(O)c(OC)c1)C(=O)/C=C/c1ccc(O)c(OC)c1` [Compound 15, (1E,6E)-1,7-bis(4-Hydroxy-3-methoxyphenyl)-4,4-dipropylhepta-1,6-diene-3,5-dione], the melting point was in the range of 137 to 139 °C. For the same compound, the IC50 in data set [2] (setting [4]) was 1.82e-05 ± 5.3e-07 M. Also, in data set [3] (setting [5]), the IC50 is 1.07e-05 ± 1.63e-06 M.
Regarding `CCCCC(CCCC)(C(=O)/C=C/c1ccc(O)c(OC)c1)C(=O)/C=C/c1ccc(O)c(OC)c1` [Compound 16, (1E,6E)-4,4-Dibutyl-1,7-bis(4-hydroxy-3-methoxyphenyl)hepta-1,6-diene-3,5-dione], the melting point was in the range of 144 to 146 °C. Besides, the IC50 in data set [2] (setting [4]) is greater than 0.0001 M. In addition, the IC50 in data set [3] (setting [5]) worked out at 6.7e-05 ± 3.18e-06 M.
For `COc1cc(/C=C/C(=O)C(C)(C)C(=O)CCc2ccc(O)c(OC)c2)ccc1O` [Compound 18, (E)-1,7-bis(4-Hydroxy-3-methoxyphenyl)-4,4-dimethylhept-1-ene-3,5-dione], the IC50 worked out at 3.648e-05 ± 3.4e-07 M in data set [2] (setting [6]) and 9.64e-06 ± 2.1e-07 M in data set [3] (setting [7]).
In the case of `COc1cc(CCC(=O)C(C)(C)C(=O)CCc2ccc(O)c(OC)c2)ccc1O` [Compound 19, 1,7-bis(4-Hydroxy-3-methoxyphenyl)-4,4-dimethylheptane-3,5-dione], the IC50 in data set [2] (setting [6]) and in data set [3] (setting [7]) was no less than 0.0001 M in each case.
For `COc1cc(CCC(=O)C(C)(C)C(O)CCc2ccc(O)c(OC)c2)ccc1O` (stereo not drawn) [Compound 20, 5-hydroxy-1,7-bis(4-hydroxy-3-methoxyphenyl)-4,4-dimethylheptan-3-one], the IC50 in data set [2] (setting [6]) and in data set [3] (setting [7]) was no less than 0.0001 M throughout.
For the compound `COc1cc(CCC(O)C(C)(C)C(O)CCc2ccc(O)c(OC)c2)ccc1O` (stereo not drawn) [Compound 21, 1,7-bis(4-Hydroxy-3-methoxyphenyl)-4,4-dimethylheptane-3,5-diol], the IC50 in data set [2] (setting [6]) and in data set [3] (setting [7]) was no less than 0.0001 M throughout.
On to `COc1cc(/C=C/C(=O)CC(=O)/C=C/c2ccc(O)c(OC)c2)ccc1O` [Curcumin, (1E,6E)-1,7-bis(4-hydroxy-3-methoxyphenyl)hepta-1,6-diene-3,5-dione], for which the values for the IC50 in data set [2] (setting [4]) and in data set [3] (setting [5]) were 2.21e-05 ± 2.97e-06 M and 2.63e-05 ± 1.38e-06 M, respectively.
